The conditions of data set [1]: in vivo, metabolite of fasudil; cited from earlier work.
The test system of another data set is humans (AD). Particulars: cited from earlier work.
The next data set has as its system triple transgenic mice. The settings on record: 10 or 12 months of age, administered in water at 30 mg/kg and 100 mg/kg; cited from earlier work.
The subject of another data set is APP/PS1 transgenic mice. Particulars: 5 and 10 mg/kg/day intraperitoneally; cited from earlier work.
Data set [2] concerns patients with Alzheimer's Dementia (AD) and frontotemporal dementia (FTD). Nature of the data set: clinical trial of oral fasudil on frequency of wandering (Example 1). It counts as in vivo, human. An excerpt: Twenty patients, 10 with AD and 10 with FTD and an MMSE score ≤23, who are characterized wanderers, are enrolled into the study and observed for 2 weeks to confirm wandering behavior. […] The double-blind phase is followed by another treatment period of 6 weeks with the opposite treatment assignment (placebo or test drug taken with food).
The following inclusion criteria are applied:
1. Patients 50 years to 90 years of age.
2. Diagnosis of dementia (AD or VaD or mixed type) for at least 6 months.
3. For entering observation period and for entering open label treatment period: Wanders:
• a. Walks distinctly more than average as others of same age and ability AND/OR • b. Elopement behavior ≥3×per week in the opinion of the investigator For entering first double-blind treatment period: Wanders: • a. Walks less than half the mean distance measured in observation period AND/OR • b. Elopement behavior <1× per week in the opinion of the investigator AND/OR • c. Wandering has improved in the opinion of the Investigator. 4. For entering observation period and for entering open label treatment period: • a. MMSE between 10 and 25.
Wandering is measured in term of time in motion and distance traveled (measures of persistent wandering), attempted and successful boundary transgressions (measures of elopement) and patterns like pacing a lapping (indicative of persistent wandering and/or agitation or anxiety) using an electronic tracking device. A typical tracking device would use a combination of accelerometry with positioning, using technology like RFID or Bluetooth in an indoor environment and GPS outdoors. Other wayfinding, orientation and memory-associated wandering incidents are observed and recorded manually.
Wandering is measured in term of time in motion and attempted successful boundary transgression using an electronic tracking device. Other wayfinding, orientation and memory-associated wandering incidents are observed and recorded manually.
The Mini Mental State Exam (MMSE), Woolsey Wandering Questionnaire and Revised Algase Wandering Scale are administered at baseline and at the end of each treatment period. Any change in the use of antipsychotics or anxiolytics that could affect movement during the study is strongly discouraged.

Data set [3] concerns triple transgenic mouse model (APP Swedish, MAPT P301L, and PSEN1 M146V). Particulars: 10 mg/kg/day intraperitoneally; cited from earlier work.
For data set [4], the system named is patients with wandering due to VaD. Particulars: cited from earlier work.
A further data set concerns streptozotocin rats. The settings on record: intraperitoneally; cited from earlier work.
Setting [5] is: on drug as compared to placebo, 90 mg/day (30 mg TID).

Counter-ions that a name gives are not always drawn. Like-named read-outs stand apart in the source and are kept apart here.

For `O=S(=O)(c1cccc2c(O)nccc12)N1CCCNCC1` [M3], the half-life entry in data set [1] is “about 8 hours”.

On to `O=c1ncn2nc(Sc3ccc(F)cc3F)ccc2c1-c1c(Cl)cccc1Cl` [Neflamapimod], for which, in the data set on humans (AD) (Phase 2), the “primary endpoint of improving episodic memory” value was “failed” and the “tau in the cerebrospinal fluid” value was “reducing tau”. Moreover, the Aβ deposition result with humans (AD) (humans) is “no effect”.

In the case of `O=S(=O)(c1cccc2cnccc12)N1CCCNCC1` [fasudil, Hexahydro-1-(5-isoquinolinesulfonyl)-1H-1,4-diazepine monohydrochloride hemihydrate], in the data set with triple transgenic mice, the spatial memory result is recorded as “did not observe improvements”. For the same compound, the “latency distance and quadrant time in the Morris water maze” value in the data set on APP/PS1 transgenic mice and in the data set with streptozotocin rats was “improved” in each case. The wandering entry in data set [2] (90 mg/day (30 mg TID) oral, 6 weeks, AD and FTD patients) is listed as “significant reduction in wandering”. In data set [2] (setting [5]), the “mean increase in MMSE score, persistent wanderers” value is recorded as “greater than 3 points”. Besides, the “reduction of activity levels in persistent wanderers” value in data set [2] (setting [5]) is “about 50%”. Besides, the “wayfinding errors and other problematic behaviors in sporadic wanderers” value in data set [2] (while on drug, 90 mg/day (30 mg TID)) is “significant reduction”. Also, in data set [3], the “ß-amyloid plaques in vivo” value is listed as “reduce ß-amyloid plaques”. The wandering symptoms entry is “wandering symptoms disappeared” in data set [4] (patient with Binswanger-type cerebral infarction, within weeks of beginning treatment); “Wandering symptoms disappeared quickly” in data set [4] (patient with sequelae of cerebral bleeding and multiple lacunar infarctions).

Values taken from patent US11642352B2, “Methods of treating wandering in Lewy dody dementia” (WOOLSEY PHARMACEUTICALS, INC., priority 2020, dated 2023).
